The subject of one series is DENV-2 16681 strain. Nature of the series: DENV-2 antiviral assay (eGFP fluorescence, Vero cells). Type of series: cell-based, Dengue virus. The settings on record: DENV-2 16681 eGFP, MOI 0.5, 3 days. The procedure:
The antiviral activity of all the compounds of the invention was tested against the DENV-2 16681 strain which was labeled with enhanced green fluorescent protein (eGPF; Table 1). The culture medium consists of minimal essential medium supplemented with 2% of heat-inactivated fetal calf serum, 0.04% gentamycin (50 mg/mL) and 2 mM of L-glutamine. Vero cells, obtained from ECACC, were suspended in culture medium and 25 μL was added to 384-well plates (2500 cells/well), which already contain the antiviral compounds. Typically, these plates contain a 5-fold serial dilution of 9 dilution steps of the test compound at 200 times the final concentration in 100% DMSO (200 nL). […] Finally, each plate contains wells which are assigned as virus controls (containing cells and virus in the absence of compound), cell controls (containing cells in the absence of virus and compound) and medium controls (containing medium in the absence of cells, virus and compounds). To the wells assigned as medium control, 25 μL of culture medium was added instead of Vero cells. Once the cells were added to the plates, the plates were incubated for 30 minutes at room temperature to allow the cells to distribute evenly within the wells. Next, the plates were incubated in a fully humidified incubator (37° C., 5% CO2) until the next day. Then, DENV-2 strain 16681, labeled with eGFP, was added at a multiplicity of infection (MOI) of 0.5. Therefore, 15 μL of virus suspension was added to all the wells containing test compound and to the wells assigned as virus control. In parallel, 15 μL of culture medium was added to the medium and cell controls. Next, the plates were incubated for 3 days in a fully humidified incubator (37° C., 5% CO2). At the day of the read out, the eGFP fluorescence was measured using an automated fluorescence microscope at 488 nm (blue laser). Using an in-house LIMS system, inhibition dose response curves for each compound were calculated and the half maximal effective concentration (EC50) was determined. Therefore, the percent inhibition (I) for every test concentration is calculated using the following formula: I=100*(ST−SCC)/(SVC−SCC); ST, SCC and SVC are the amount of eGFP signal in the test compound, cell control and virus control wells, respectively. The EC50 represents the concentration of a compound at which the virus replication is inhibited with 50%, as measured by a 50% reduction of the eGFP fluorescent intensity compared to the virus control. The EC50 is calculated using linear interpolation.

Series [1] is described as follows: in vitro. The conditions noted are these: African green monkey.
The next series concerns DENV-1 strain TC974#666. Put plainly: Tetravalent RT-qPCR assay Protocol A, serotype 1. The series is classed as cell-based. The settings on record: Dengue virus, DENV1, 72 h, RT-qPCR serotype 1 TC974#666, Vero cells, day 3. How it is done: (§1) The antiviral activity of the compounds of the invention was tested against DENV-1 strain TC974#666 (NCPV; Table 6), DENV-2 strain 16681 (Table 7), DENV-3 strain H87 (NCPV; Table 8) and DENV-4 strains H241 (NCPV; Table 9A) and SG/06K2270DK1/2005 (Eden; Table 9B) in a RT-qPCR assay. Therefore, Vero cells were infected with either DENV-1, or -2, or -3, or -4 in the presence or absence of test compounds. At day 3 post-infection, the cells were lysed and cell lysates were used to prepare cDNA of both a viral target (the 3′UTR of DENV; Table 2) and a cellular reference gene (β-actin, Table 2). Subsequently, a duplex real time PCR was performed on a Lightcycler480 instrument. The generated Cp value is inversely proportional to the amount of RNA expression of these targets. Inhibition of DENV replication by test compound results in a shift of Cp's for the 3′UTR gene. On the other hand, if a test compound is toxic to the cells, a similar effect on β-actin expression will be observed. The comparative ΔΔCp method is used to calculate EC50, which is based on the relative gene expression of the target gene (3′UTR) normalized with the cellular housekeeping gene (β-actin).
(§2) The culture medium consisted of minimal essential medium supplemented with 2% of heat-inactivated fetal calf serum, 0.04% gentamycin (50 mg/mL) and 2 mM of L-glutamine. Vero cells, obtained from ECACC, were suspended in culture medium and 75 μL/well was added in 96-well plates (10000 cells/well), which already contain the antiviral compounds. […] In addition, each plate contains wells which are assigned as virus controls (containing cells and virus in the absence of compound) and cell controls (containing cells in the absence of virus and compound). Once the cells were added in the plates, the plates were incubated in a fully humidified incubator (37° C., 5% CO2) until the next day. Dengue viruses serotype-1, 2, 3 and 4 were diluted in order to obtain a Cp of ˜22-24 in the assay. Therefore, 25 μL of virus suspension was added to all the wells containing test compound and to the wells assigned as virus control. In parallel, 25 μL of culture medium was added to the cell controls. Next, the plates were incubated for 3 days in a fully humidified incubator (37° C., 5% CO2). After 3 days, the supernatant was removed from the wells and the cells were washed twice with ice-cold PBS (˜100 μL). The cell pellets within the 96-well plates were stored at −80° C. for at least 1 day. Next, RNA was extracted using the Cells-to-CT™ lysis kit, according to the manufacturer's guideline (Life Technologies). The cell lysates can be stored at −80° C. or immediately used in the reverse transcription step.
(§3) In preparation of the reverse transcription step, mix A (table 3A) was prepared and 7.57 μL/well was dispensed in a 96-well plate. After addition of 5 μL of the cell lysates, a five minute denaturation step at 75° C. was performed (table 3B). Afterwards, 7.43 μL of mix B was added (table 3C) and the reverse transcription step was initiated (table 3D) to generate cDNA.
(§4) Finally, a RT-qPCR mix was prepared, mix C (table 4A), and 22.02 μL/well was dispensed in 96-well LightCycler qPCR plates to which 3 μL of cDNA was added and the qPCR was performed according to the conditions in table 4B on a LightCycler 480.
(§5) Using the LightCycler software and an in-house LIMS system, dose response curves for each compound were calculated and the half maximal effective concentration (EC50) and the half maximal cytotoxic concentration (CC50) were determined.

The next series concerns DENV-2 strain 16681. Put plainly: Tetravalent RT-qPCR assay Protocol A, serotype 2. The series is classed as cell-based. The settings on record: Dengue virus. The procedure:
as §1, §2, §3, §4, §5
(In qPCR the cycle at which signal appears reflects the starting amount.)

The next series has as its system Vero cells. The settings on record: African green monkey.
The subject of the next series is DENV-3 strain H87. Nature of the series: Tetravalent RT-qPCR assay Protocol A, serotype 3. The series is classed as cell-based. The settings on record: Dengue virus, DENV3, 72 h, RT-qPCR serotype 3 H87, Vero cells, day 3. The procedure: as §1, §2, §3, §4, §5
Series [2] can be described thus: in vitro. The conditions noted are these: African green monkey, CC50. The series is classed as cell-based. The procedure: as §1, §2, §5
For another series, the system named is DENV-4 strain H241. Put plainly: Tetravalent RT-qPCR assay Protocol A, serotype 4 H241. The series is classed as cell-based. The settings on record: Dengue virus. How it is done: as §1, §2, §3, §4, §5
Setting [3] is: Dengue virus, DENV2, Vero, 72 h.
[4] abbreviates: DENV2, 72 h, Protocol A, RT-qPCR serotype 2 16681, Vero cells, day 3, read-out: EC50.
[5] abbreviates: DENV4, 72 h, Protocol A, RT-qPCR serotype 4 H241, Vero cells, day 3, read-out: EC50.

Like-named read-outs stand apart in the source and are kept apart here. A value given as a limit tells only on which side of the number the result lay.

As usually defined, the EC50 is the concentration needed to bring the measured effect to its halfway point. `COc1cc(NC(C(=O)c2c[nH]c3c(C)c(F)ccc23)c2ccc(Cl)cc2OC)cc(S(C)(=O)=O)c1` (racemic) [Compound 2, 2-(4-chloro-2-methoxyphenyl)-1-(6-fluoro-7-methyl-1H-indol-3-yl)-2-((3-methoxy-5-(methylsulfonyl)phenyl)amino)ethanone]: it took 0.6 nM to reach a half-maximal effect in the series on DENV-2 16681 strain (setting [3]) (EC50). The CC50 in “in vitro [1]” turned out to be 5000 nM.

In the series on DENV-2 16681 strain (setting [3]), `COc1cc(NC(C(=O)c2c[nH]c3cc(OC)ccc23)c2ccc(Cl)cc2OC)cc(S(C)(=O)=O)c1` (racemic) [Compound 3, 2-(4-chloro-2-methoxyphenyl)-1-(6-methoxy-1H-indol-3-yl)-2-((3-methoxy-5-(methylsulfonyl)phenyl)amino)ethanone] gave an EC50 of 0.58 nM. In “in vitro [1]”, the CC50 was above 11000 nM.

`COc1cc(NC(C(=O)c2c[nH]c3cc(OC)c(C)cc23)c2ccc(Cl)cc2OC)cc(S(C)(=O)=O)c1` (racemic) [Compound 4, 2-(4-chloro-2-methoxyphenyl)-2-((3-methoxy-5-(methyl-sulfonyl)phenyl)amino)-1-(6-methoxy-5-methyl-1H-indol-3-yl)ethanone] had a concentration giving a half-maximal response (EC50) with DENV-2 16681 strain (setting [3]) of 0.39 nM. Also, the CC50 in the series “in vitro [1]” is 5900 nM.

The compound `COc1cc(NC(C(=O)c2c[nH]c3cc(OC)c(F)cc23)c2ccc(Cl)cc2OC)cc(S(C)(=O)=O)c1` (racemic) [Compound 5, 2-(4-chloro-2-methoxyphenyl)-1-(5-fluoro-6-methoxy-1H-indol-3-yl)-2-((3-methoxy-5-(methylsulfonyl)phenyl)amino)ethanone] had a 50% effective concentration (EC50) in the series with DENV-2 16681 strain (setting [3]) of 0.62 nM. In “in vitro [1]”, this compound gave a CC50 of 5500 nM.

Compound `COc1cc(NC(C(=O)c2c[nH]c3cc(F)c(C)cc23)c2ccc(Cl)cc2OC)cc(S(C)(=O)=O)c1` (racemic) [Compound 7, 2-(4-chloro-2-methoxyphenyl)-1-(6-fluoro-5-methyl-1H-indol-3-yl)-2-((3-methoxy-5-(methylsulfonyl)phenyl)amino)ethanone] showed an EC50 in the series on DENV-2 16681 strain (setting [3]) of 0.47 nM. In addition, the CC50 in “in vitro [1]” came to 3200 nM.

In the case of `COc1cc(NC(C(=O)c2c[nH]c3ccc(C(F)(F)F)cc23)c2ccc(Cl)cc2OC)cc(S(C)(=O)=O)c1` (racemic) [Compound 8, 2-(4-chloro-2-methoxyphenyl)-2-((3-methoxy-5-(methyl-sulfonyl)phenyl)amino)-1-(5-(trifluoromethyl)-1H-indol-3-yl)ethanone], the EC50 with DENV-2 16681 strain (setting [3]) was found to be 0.13 nM. The same compound showed a CC50 in “in vitro [1]” of 2900 nM.

In the series with DENV-2 16681 strain (setting [3]), `COc1cc(NC(C(=O)c2c[nH]c3ccc(OC(F)(F)F)cc23)c2ccc(Cl)cc2OC)cc(S(C)(=O)=O)c1` (racemic) [Compound 9, 2-(4-chloro-2-methoxyphenyl)-2-((3-methoxy-5-(methyl-sulfonyl)phenyl)amino)-1-(5-(trifluoromethoxy)-1H-indol-3-yl)ethanone] returned a 50% effective concentration (EC50) of 0.074 nM. The compound also gave a CC50 in the series “in vitro [1]” of 3100 nM.

For `COc1cc(NC(C(=O)c2c[nH]c3cc(F)c(C)cc23)c2ccc(Cl)cc2OC)cc(S(C)(=O)=O)c1` (single isomer, unassigned) [Compound 7B, 2-(4-chloro-2-methoxyphenyl)-1-(6-fluoro-5-methyl-1H-indol-3-yl)-2-((3-methoxy-5-(methylsulfonyl)phenyl)amino)ethanone], the EC50 in the series with DENV-1 strain TC974#666 was 0.4 nM; in the series on DENV-2 16681 strain it was 0.2 nM; in the series on DENV-2 strain 16681 (setting [4]) it was 0.17 nM; in the series with DENV-3 strain H87 it was 7.8 nM; in the series with DENV-4 strain H241 (setting [5]), 44 nM. This compound yielded a CC50 in the series with Vero cells of 3200 nM. In the series “in vitro [2]”, the CC50 at 3 days amounted to 2200 nM.

Turning to `COc1cc(NC(C(=O)c2c[nH]c3ccc(C(F)(F)F)cc23)c2ccc(Cl)cc2OC)cc(S(C)(=O)=O)c1` (single isomer, unassigned) [Compound 8B, 2-(4-chloro-2-methoxyphenyl)-2-((3-methoxy-5-(methyl-sulfonyl)phenyl)amino)-1-(5-(trifluoromethyl)-1H-indol-3-yl)ethanone], the EC50 was found to be 0.45 nM with DENV-1 strain TC974#666; 0.069 nM in the series on DENV-2 16681 strain; 0.31 nM in the series with DENV-2 strain 16681 (DENV2, Vero, 72 h); 5.8 nM with DENV-3 strain H87; 15 nM in the series on DENV-4 strain H241 (setting [5]). The CC50 in the series on Vero cells turned out to be 3400 nM. For the same compound, the CC50 at 3 days in “in vitro [2]” came to 1900 nM.

As for `COc1cc(NC(C(=O)c2c[nH]c3ccc(OC(F)(F)F)cc23)c2ccc(Cl)cc2OC)cc(S(C)(=O)=O)c1` (single isomer, unassigned) [Compound 9A, 2-(4-chloro-2-methoxyphenyl)-2-((3-methoxy-5-(methyl-sulfonyl)phenyl)amino)-1-(5-(trifluoromethoxy)-1H-indol-3-yl)ethanone], the half-maximal effective concentration (EC50) with DENV-1 strain TC974#666 was determined as 0.11 nM; in the series on DENV-2 16681 strain it was 0.067 nM; with DENV-2 strain 16681 (setting [4]), 0.057 nM; in the series on DENV-3 strain H87, 2.1 nM; with DENV-4 strain H241 (setting [5]) it was 12 nM. Further, the CC50 in the series with Vero cells was found to be 2900 nM. Moreover, the CC50 at 3 days in the series “in vitro [2]” came out at 1700 nM.

`COc1cc(NC(C(=O)c2c[nH]c3c(C)cc(OC(F)(F)F)cc23)c2ccc(Cl)cc2OC)cc(S(C)(=O)=O)c1` (single isomer, unassigned) [Compound 11A, 2-(4-chloro-2-methoxyphenyl)-2-((3-methoxy-5-(methylsulfonyl)phenyl)amino)-1-(7-methyl-5-(trifluoromethoxy)-1H-indol-3-yl)ethanone]: the EC50 in the series with DENV-1 strain TC974#666 was found to be 0.13 nM; in the series on DENV-2 16681 strain, 0.085 nM; in the series on DENV-2 strain 16681 (setting [4]), 0.051 nM; with DENV-3 strain H87 it was 1.2 nM; with DENV-4 strain H241 (DENV4, Vero, 72 h), 11 nM. The CC50 in the series with Vero cells stood at 2600 nM. Moreover, the CC50 at 3 days in the series “in vitro [2]” was above 2500 nM.

For the origin of these results see US12172959B2, “Mono- or di-substituted indole derivatives as dengue viral replication inhibitors” (priority 2015, dated 2024).
